Laboratory results: PMC4303209, “A novel phosphatidylinositol 3-kinase (PI3K) inhibitor directs a potent FOXO-dependent, p53-independent cell cycle arrest phenotype characterized by the differential induction of a subset of FOXO-regulated genes” (Breast Cancer Research : BCR, 2014)

Tested on: MCF-7 breast cancer cells
Experiment: Microarray gene expression analysis (Agilent whole human genome 4 x 44K; compound vs DMSO, LIMMA log2 fold change)
Format: cell-based

With Cn1ncc2c(N3CCOCC3)nc(-c3cccc(O)c3)nc21 [ETP-45658] the “BCL11B log2FC” value (Apoptosis genes, Gene 64919) was 0.176, the “MRPL41 log2FC” value (Apoptosis genes, Gene 64975) was -0.545 and the “PINK1 log2FC” value (Apoptosis genes, Gene 65018) was 1.625. The “PRAMEF1 log2FC” value (Apoptosis genes, Gene 65121) was -0.072, the “PRAMEF2 log2FC” value (Apoptosis genes, Gene 65122) was 0.062 and the “UBE2Z log2FC” value (Apoptosis genes, Gene 65264) was -0.414. For the same compound, the “TMEM109 log2FC” value (Apoptosis genes, Gene 79073) was -0.626, the “CHAC1 log2FC” value (Apoptosis genes, Gene 79094) was -0.144 and the “TNIP2 log2FC” value (Apoptosis genes, Gene 79155) was -0.126. For the same compound, the “PLEKHF1 log2FC” value (Apoptosis genes, Gene 79156) was -0.469, the “THOC6 log2FC” value (Apoptosis genes, Gene 79228) was -0.373 and the “BCL2L14 log2FC” value (Apoptosis genes, Gene 79370) was -0.145. The “BIRC7 log2FC” value (Apoptosis genes, Gene 79444) was -0.043, the “ELMO3 log2FC” value (Apoptosis genes, Gene 79767) was -0.597 and the “SLTM log2FC” value (Apoptosis genes, Gene 79811) was 0.763. The “ZC3H12A log2FC” value (Apoptosis genes, Gene 80149) was -1.168, the “RNF34 log2FC” value (Apoptosis genes, Gene 80196) was -0.174 and the “ELL3 log2FC” value (Apoptosis genes, Gene 80237) was 1.095. The “CPEB4 log2FC” value (Apoptosis genes, Gene 80315) was 0.577, the “COL18A1 log2FC” value (Apoptosis genes, Gene 80781) was -0.387 and the “SGPP1 log2FC” value (Apoptosis genes, Gene 81537) was -0.165. For the same compound, the “SHARPIN log2FC” value (Apoptosis genes, Gene 81858) was -0.232, the “APH1B log2FC” value (Apoptosis genes, Gene 83464) was -0.559 and the “RASSF5 log2FC” value (Apoptosis genes, Gene 83593) was -0.091. For the same compound, the “SOX7 log2FC” value (Apoptosis genes, Gene 83595) was -0.214, the “BCL2L12 log2FC” value (Apoptosis genes, Gene 83596) was -0.236 and the “ITCH log2FC” value (Apoptosis genes, Gene 83737) was 0.721. For the same compound, the “CDCA7 log2FC” value (Apoptosis genes, Gene 83879) was 0.213, the “TATDN1 log2FC” value (Apoptosis genes, Gene 83940) was 0.636 and the “TM2D1 log2FC” value (Apoptosis genes, Gene 83941) was 0.088. For the same compound, the “OBSCN log2FC” value (Apoptosis genes, Gene 84033) was 0.277, the “TRAF7 log2FC” value (Apoptosis genes, Gene 84231) was -0.191 and the “RHBDD1 log2FC” value (Apoptosis genes, Gene 84236) was -0.533. The “TCHP log2FC” value (Apoptosis genes, Gene 84260) was 0.198, the “ZDHHC16 log2FC” value (Apoptosis genes, Gene 84287) was -0.471 and the “ING5 log2FC” value (Apoptosis genes, Gene 84289) was -0.932. For the same compound, the “AKT1S1 log2FC” value (Apoptosis genes, Gene 84335) was -0.939, the “CARD11 log2FC” value (Apoptosis genes, Gene 84433) was 0.083 and the “SYVN1 log2FC” value (Apoptosis genes, Gene 84447) was 0.455. The “ZC3H8 log2FC” value (Apoptosis genes, Gene 84524) was 1.519, the “FNDC1 log2FC” value (Apoptosis genes, Gene 84624) was -0.102 and the “CARD6 log2FC” value (Apoptosis genes, Gene 84674) was 0.198. The “HINT2 log2FC” value (Apoptosis genes, Gene 84681) was -0.153, the “BEX2 log2FC” value (Apoptosis genes, Gene 84707) was 0.736 and the “TNS4 log2FC” value (Apoptosis genes, Gene 84951) was -1.366. The “ATG4D log2FC” value (Apoptosis genes, Gene 84971) was -0.461, the “SCRT2 log2FC” value (Apoptosis genes, Gene 85508) was -0.569 and the “WNT3A log2FC” value (Apoptosis genes, Gene 89780) was -0.585. The “FGD3 log2FC” value (Apoptosis genes, Gene 89846) was 0.596, the “UNC5A log2FC” value (Apoptosis genes, Gene 90249) was -0.468 and the “BMF log2FC” value (Apoptosis genes, Gene 90427) was 2.299. The “MTDH log2FC” value (Apoptosis genes, Gene 92140) was 0.563, the “TIMM50 log2FC” value (Apoptosis genes, Gene 92609) was -0.439 and the “TP53INP1 log2FC” value (Apoptosis genes, Gene 94241) was 0.920. For the same compound, the “EGLN2 log2FC” value (Apoptosis genes, Gene 112398) was 0.272, the “EGLN3 log2FC” value (Apoptosis genes, Gene 112399) was -0.474 and the “PNMA5 log2FC” value (Apoptosis genes, Gene 114824) was 0.435. For the same compound, the “SLC5A11 log2FC” value (Apoptosis genes, Gene 115584) was 0.136, the “TWIST2 log2FC” value (Apoptosis genes, Gene 117581) was -0.722 and the “RFFL log2FC” value (Apoptosis genes, Gene 117584) was -0.488. For the same compound, the “FGD4 log2FC” value (Apoptosis genes, Gene 121512) was 0.637, the “RXFP2 log2FC” value (Apoptosis genes, Gene 122042) was -0.049 and the “DCUN1D3 log2FC” value (Apoptosis genes, Gene 123879) was -1.081. The “ACVR1C log2FC” value (Apoptosis genes, Gene 130399) was 0.259, the “IL31RA log2FC” value (Apoptosis genes, Gene 133396) was 0.071 and the “JMY log2FC” value (Apoptosis genes, Gene 133746) was 1.016. For the same compound, the “UNC5D log2FC” value (Apoptosis genes, Gene 137970) was 0.118, the “DYNLL2 log2FC” value (Apoptosis genes, Gene 140735) was -0.697 and the “PSMA8 log2FC” value (Apoptosis genes, Gene 143471) was 0.068. The “TICAM1 log2FC” value (Apoptosis genes, Gene 148022) was -0.493, the “BNIPL log2FC” value (Apoptosis genes, Gene 149428) was -0.061 and the “ZSWIM2 log2FC” value (Apoptosis genes, Gene 151112) was 0.088. The “DAB2IP log2FC” value (Apoptosis genes, Gene 153090) was -0.220, the “SLC5A8 log2FC” value (Apoptosis genes, Gene 160728) was -0.070 and the “PTCRA log2FC” value (Apoptosis genes, Gene 171558) was -0.425. For the same compound, the “HIGD2A log2FC” value (Apoptosis genes, Gene 192286) was -0.398, the “FLCN log2FC” value (Apoptosis genes, Gene 201163) was 0.968 and the “HIPK1 log2FC” value (Apoptosis genes, Gene 204851) was -0.153. The “UNC5B log2FC” value (Apoptosis genes, Gene 219699) was -0.570, the “RNF152 log2FC” value (Apoptosis genes, Gene 220441) was -0.038 and the “FGD2 log2FC” value (Apoptosis genes, Gene 221472) was -0.102. The “MPV17L log2FC” value (Apoptosis genes, Gene 255027) was -0.367, the “TMEM23 log2FC” value (Apoptosis genes, Gene 259230) was 0.357 and the “MAGI3 log2FC” value (Apoptosis genes, Gene 260425) was 0.325. The “BLOC1S2 log2FC” value (Apoptosis genes, Gene 282991) was 0.498, the “NRBP2 log2FC” value (Apoptosis genes, Gene 340371) was -0.074 and the “NANOS3 log2FC” value (Apoptosis genes, Gene 342977) was -0.124. For the same compound, the “AMIGO2 log2FC” value (Apoptosis genes, Gene 347902) was 0.532, the “C6orf120 log2FC” value (Apoptosis genes, Gene 387263) was -0.615 and the “GDF6 log2FC” value (Apoptosis genes, Gene 392255) was -0.089. For the same compound, the “MYO18A log2FC” value (Apoptosis genes, Gene 399687) was -0.470, the “PRAMEF3 log2FC” value (Apoptosis genes, Gene 401940) was -0.272 and the “ADIPOQ log2FC” value (Apoptosis genes, Gene 414149) was -0.245. For the same compound, the “PIM3 log2FC” value (Apoptosis genes, Gene 415116) was 0.693, the “LGALS7 log2FC” value (Apoptosis genes, Gene 653499) was -0.163 and the “CARD9 log2FC” value (Apoptosis genes, Gene 728489) was -0.457. The “PDCD6 log2FC” value (Apoptosis genes, Gene 728613) was -0.285, the “RRN3 log2FC” value (Apoptosis genes, Gene 730092) was 0.619 and the “CD24 log2FC” value (Apoptosis genes, Gene 100133941) was 0.127. The “ACVR1 log2FC” value (Gene 90, cell cycle genes) was 0.534, the “ACVR1B log2FC” value (Gene 91, cell cycle genes) was -0.563 and the “ADCYAP1 log2FC” value (Gene 116, cell cycle genes) was 0.068. The “AHR log2FC” value (Gene 196, cell cycle genes) was 0.995, the “AIF1 log2FC” value (Gene 199, cell cycle genes) was -0.077 and the “AK1 log2FC” value (Gene 203, cell cycle genes) was -0.344. The “AKT1 log2FC” value (Gene 207, cell cycle genes) was -0.608, the “AKT2 log2FC” value (Gene 208, cell cycle genes) was -0.554 and the “ALOX15B log2FC” value (Gene 247, cell cycle genes) was -0.102. For the same compound, the “ANK3 log2FC” value (Gene 288, cell cycle genes) was 0.532, the “ANXA1 log2FC” value (Gene 301, cell cycle genes) was 0.991 and the “ANXA11 log2FC” value (Gene 311, cell cycle genes) was -0.496. The “APBB1 log2FC” value (Gene 322, cell cycle genes) was 0.078, the “APBB2 log2FC” value (Gene 323, cell cycle genes) was -0.357 and the “APEX1 log2FC” value (Gene 328, cell cycle genes) was 0.266. For the same compound, the “BIRC2 log2FC” value (Gene 329, cell cycle genes) was 0.082, the “APP log2FC” value (Gene 351, cell cycle genes) was 0.379 and the “ARF6 log2FC” value (Gene 382, cell cycle genes) was -0.682. For the same compound, the “RHOB log2FC” value (Gene 388, cell cycle genes) was -0.133, the “RHOC log2FC” value (Gene 389, cell cycle genes) was -0.491 and the “ARL2 log2FC” value (Gene 402, cell cycle genes) was -0.140. For the same compound, the “ARL3 log2FC” value (Gene 403, cell cycle genes) was 0.192, the “ASNS log2FC” value (Gene 440, cell cycle genes) was -0.404 and the “BACH1 log2FC” value (Gene 571, cell cycle genes) was 0.774. The “BARD1 log2FC” value (Gene 580, cell cycle genes) was 0.487, the “BBS4 log2FC” value (Gene 585, cell cycle genes) was 1.207 and the “CCND1 log2FC” value (Gene 595, cell cycle genes) was -1.564. For the same compound, the “BCL2 log2FC” value (Gene 596, cell cycle genes) was -0.310, the “BCL2L1 log2FC” value (Gene 598, cell cycle genes) was -0.991 and the “BCR log2FC” value (Gene 613, cell cycle genes) was -0.914. For the same compound, the “BID log2FC” value (Gene 637, cell cycle genes) was -0.095, the “BMP2 log2FC” value (Gene 650, cell cycle genes) was -0.038 and the “BMP7 log2FC” value (Gene 655, cell cycle genes) was -0.344. For the same compound, the “DST log2FC” value (Gene 667, cell cycle genes) was 0.571, the “BRCA1 log2FC” value (Gene 672, cell cycle genes) was 0.792 and the “BRDT log2FC” value (Gene 676, cell cycle genes) was 0.068. The “BUB1 log2FC” value (Gene 699, cell cycle genes) was 0.803, the “CALM1 log2FC” value (Gene 801, cell cycle genes) was 0.216 and the “CALR log2FC” value (Gene 811, cell cycle genes) was -0.081. The “CAMK2A log2FC” value (Gene 815, cell cycle genes) was 0.024, the “CAMK2D log2FC” value (Gene 817, cell cycle genes) was 0.613 and the “CAMK2G log2FC” value (Gene 818, cell cycle genes) was 0.874. The “CASP2 log2FC” value (Gene 835, cell cycle genes) was -0.918, the “CAV2 log2FC” value (Gene 858, cell cycle genes) was 0.696 and the “RUNX3 log2FC” value (Gene 864, cell cycle genes) was -0.494. The “CCNA2 log2FC” value (Gene 890, cell cycle genes) was -0.047, the “CCNB1 log2FC” value (Gene 891, cell cycle genes) was 0.072 and the “CCNC log2FC” value (Gene 892, cell cycle genes) was 0.257. The “CCND2 log2FC” value (Gene 894, cell cycle genes) was -1.006, the “CCND3 log2FC” value (Gene 896, cell cycle genes) was -0.730 and the “CCNE1 log2FC” value (Gene 898, cell cycle genes) was -0.471. For the same compound, the “CCNG1 log2FC” value (Gene 900, cell cycle genes) was 0.908, the “CCNG2 log2FC” value (Gene 901, cell cycle genes) was 3.913 and the “CD28 log2FC” value (Gene 940, cell cycle genes) was 0.087. The “CDC5L log2FC” value (Gene 988, cell cycle genes) was 1.004, the “CDC6 log2FC” value (Gene 990, cell cycle genes) was -0.800 and the “CDC20 log2FC” value (Gene 991, cell cycle genes) was -0.346. The “CDC25A log2FC” value (Gene 993, cell cycle genes) was -1.970.
